Converted amounts (≈) assume the structure as drawn. Like-named read-outs stand apart in the source and are kept apart here.
How the values were obtained:
[1] = system: Klebsiella 8085; test: Antibacterial activity in vitro, plast test (MIC); type: cell-based; conditions: agar plate, 5 × 10^3 /plate, pH 7.4
Protocol: (§1) The in vitro tests were carried out by the plast test. In this, the bacteria were cast with the agar, at a concentration of 5 × 10^3 /plate. […]

[2] = system: Proteus vulgaris 1017; test: Antibacterial activity in vitro, plast test (MIC); type: cell-based; conditions: agar plate, 5 × 10^3 /plate, pH 7.4
Protocol: as §1

[3] = system: Staphylococcus aureus 133; test: Antibacterial activity in vitro, plast test (MIC); type: cell-based; conditions: agar plate, 5 × 10^3 /plate, pH 7.4
Protocol: as §1

[4] = system: Streptococcus pyogenes W; test: Antibacterial activity in vitro, plast test (MIC); type: cell-based; conditions: agar plate, 5 × 10^3 /plate, pH 7.4; in µg/mL
Protocol: as §1

[5] = system: Trichophyton mentagrophvtes; test: Antimycotic activity in vitro, series dilution test (MIC); type: cell-based, Trichophyton mentagrophytes; conditions: 28° C., 24-96 hours, Sabouraud's milieu d'epreuve, 5 × 10^4 germs/ml, read-out: MIC values in γ/ml of nutrient medium, for Trichophyton mentagrophvtes
Protocol: (§2) The in vitro tests were carried out in a series dilution test with germ inocula averaging 5 × 10^4 germs/ml of substrate. The nutrient media used were
(§3) (a) for dermatophytes and molds Sabouraud's milieu d'epreuve,
(§4) The incubation temperatures were 28° C. for dermatophytes, yeasts and molds and 37° C. for biphase fungi; the incubation time was 24-96 hours.

[6] = system: Candida albicans; test: as above; type: cell-based; conditions: read-out: MIC values in γ/ml of nutrient medium, for Candida albicans
Protocol: as §2
(b) for yeasts: meat extract-glucose bouillon,
as §4

[7] = system: Pityrosporum ovale; test: as above; type: cell-based; conditions: Malassezia furfur; Abbe medium, 24-96 hours, 5 × 10^4 germs/ml; read-out: MIC values in γ/ml of nutrient medium, for Pityrosporum ovale
Protocol: The in vitro tests were carried out in a series dilution test with germ inocula averaging 5 × 10^4 germs/ml of substrate. The nutrient media used were (c) for Pytrosporum ovale: Abbe medium, and The incubation temperatures were 28° C. for dermatophytes, yeasts and molds and 37° C. for biphase fungi; the incubation time was 24-96 hours.

[8] = system: Aspergillus fumigatus; test: as above; type: cell-based; conditions: read-out: MIC values in γ/ml of nutrient medium, for Aspergillus fumigatus
Protocol: as §2, §3, §4

[9] = system: penicillium; test: as above; type: cell-based; conditions: 28° C., 24-96 hours, Sabouraud's milieu d'epreuve, 5 × 10^4 germs/ml, read-out: MIC values in γ/ml of nutrient medium, for penicillium
Protocol: as §2, §3, §4

[10] = system: Histoplasma; test: microbe, parasite or virus in culture; type: cell-based; conditions: read-out: MIC values in γ/ml of nutrient medium, for Histoplasma
[11] = system: fungi; conditions: Belgian Pat. No. 720,801; cited from earlier work
[12] = system: bacteria; test: Antibacterial activity (general statement); type: cell-based
[13] = system: E-Coli A 261; test: Antibacterial activity in vitro, plast test (MIC); type: cell-based; conditions: agar plate, 5 × 10^3 /plate, pH 7.4
Protocol: as §1

[14] = system: Pseudomonas aerug. B; test: Antibacterial activity in vitro, plast test (MIC); type: cell-based; conditions: agar plate, 5 × 10^3 /plate, pH 7.4
Protocol: as §1

[15] = 28° C., 24-96 hours, meat extract-glucose bouillon, 5 × 10^4 germs/ml
[16] = 28° C., 24-96 hours, Sabouraud's milieu d'epreuve, 5 × 10^4 germs/ml

## c1ccc(-c2ccc(C(c3ccccc3)n3ccnc3)cc2)cc1 (centres unmarked) [drawing 13]
[1]
  MIC values for Klebsiella 8085: 128 µg/mL
[2]
  MIC values for Proteus vulgaris 1017: 128 µg/mL
[3]
  MIC values for Staphylococcus aureus 133: 8 µg/mL
[4]
  MIC values for Streptococcus pyogenes W: 10-20

## Clc1ccccc1C(c1ccc(Oc2ccccc2)cc1)n1ccnc1 (centres unmarked)
[5]
  MIC: 16 µg/mL (≈ 44.3 µM)
[6]; [15]
  MIC: 8 µg/mL (≈ 22.2 µM)
[7]
  MIC: 1 µg/mL (≈ 2.77 µM)
[8]; [16]
  MIC: < 0.1 µg/mL
[9]
  MIC: < 0.1 µg/mL
[10]
  MIC: 2 µg/mL (≈ 5.54 µM)

## Clc1ccccc1C(c1ccccc1)(c1ccccc1)n1ccnc1 [clotrimazol, bisphenyl-(2-chlorophenyl)-imidazol-1-ylmethane]
[11]
  antimycotic action: good antimycotic action

## COC1=CC(=O)C[C@@H](C)[C@]12Oc1c(Cl)c(OC)cc(OC)c1C2=O [griseofulvin]
[12]
  antibacterial activity: not present

## C[C@@H]1[C@H](O)[C@@H](C)/C=C/C=C/CC/C=C/C=C/C=C/C=C/C(O[C@H]2O[C@H](C)[C@@H](O)[C@H](N)[C@@H]2O)CC2O[C@](O)(CC(O)C(O)CCC(O)CC(O)CC(O)CC(=O)O[C@H]1C)CC(O)C2C(=O)O (some centres unmarked) [nystatin]
[12]
  antibacterial activity: not present

## Clc1cccc(C(c2ccc(-c3ccccc3)cc2)n2ccnc2)c1 (centres unmarked) [drawing 16]
[3]
  MIC values for Staphylococcus aureus 133: 8 µg/mL
[4]
  MIC values for Streptococcus pyogenes W: 128

## Clc1ccccc1C(c1ccc(-c2ccccc2)cc1)n1ccnc1 (centres unmarked) [drawing 10]
[5]
  MIC: < 1 µg/mL
[6]; [15]
  MIC: 2 µg/mL (≈ 5.8 µM)
[7]
  MIC: 1 µg/mL (≈ 2.9 µM)
[8]; [16]
  MIC: < 0.1 µg/mL
[9]
  MIC: < 0.1 µg/mL
[10]
  MIC: 4 µg/mL (≈ 11.6 µM)

## Clc1ccccc1C(c1ccc(-c2ccccc2)cc1)n1ccnc1 (centres unmarked) [drawing 14]
[13]
  MIC values for E-Coli A 261: 256 µg/mL
[1]
  MIC values for Klebsiella 8085: 128 µg/mL
[2]
  MIC values for Proteus vulgaris 1017: 128 µg/mL
[14]
  MIC values for Pseudomonas aerug. B: 256 µg/mL
[3]
  MIC values for Staphylococcus aureus 133: 8 µg/mL
[4]
  MIC values for Streptococcus pyogenes W: 128

## C[C@@H]1C/C=C/C=C/C=C/C=C/[C@H](O[C@@H]2O[C@H](C)[C@@H](O)[C@H](N)[C@@H]2O)C[C@@H]2O[C@](O)(C[C@@H](O)C[C@H]3O[C@@H]3/C=C/C(=O)O1)C[C@H](O)[C@H]2C(=O)O [pimaricin]
[12]
  antibacterial activity: not present

## Clc1ccc(C(c2ccc(-c3ccccc3)cc2)n2ccnc2)cc1 (centres unmarked)
[3]
  MIC values for Staphylococcus aureus 133: 8 µg/mL
[4]
  MIC values for Streptococcus pyogenes W: 10

## c1ccc(-c2ccc(C(c3ccccc3)n3ccnc3)cc2)cc1 (centres unmarked) [drawing 9]
[5]
  MIC: < 1 µg/mL
[6]
  MIC: 4 µg/mL (≈ 12.9 µM)
[7]
  MIC: 1 µg/mL (≈ 3.22 µM)
[8]
  MIC: < 0.1 µg/mL
[9]
  MIC: < 0.1 µg/mL
[10]
  MIC: 4 µg/mL (≈ 12.9 µM)

## CC(C)(C)c1ccc(C(c2ccc(-c3ccccc3)cc2)n2ccnc2)cc1 (centres unmarked)
[1]
  MIC values for Klebsiella 8085: 128 µg/mL
[2]
  MIC values for Proteus vulgaris 1017: 128 µg/mL
[14]
  MIC values for Pseudomonas aerug. B: 256 µg/mL
[3]
  MIC values for Staphylococcus aureus 133: 8 µg/mL
[4]
  MIC values for Streptococcus pyogenes W: 128

## Clc1cccc(C(c2ccc(-c3ccccc3)cc2)n2ccnc2)c1 (centres unmarked) [drawing 11]
[5]
  MIC: 2 µg/mL (≈ 5.8 µM)
[6]; [15]
  MIC: 1 µg/mL (≈ 2.9 µM)
[7]
  MIC: 1 µg/mL (≈ 2.9 µM)
[8]; [16]
  MIC: < 0.1 µg/mL
[9]
  MIC: < 0.1 µg/mL
[10]
  MIC: 2 µg/mL (≈ 5.8 µM)
